Test results reported in US9458092B2, “α-Substituted glycinamide derivative” (KISSEI PHARMACEUTICAL CO., LTD., priority 2013, dated 2016).

The molecules below were run against TRPM8 (Rattus norvegicus, UniProt Q8R455) (assay: Confirmation test of inhibitory effects on icilin-induced wet-dog shakes). Conditions: dose 3 mg/kg orally, icilin 1 mg/kg i.p. after 1 hour, shakes counted for 5 minutes.
Type: in vivo, female SD rats
Set-up: test compounds were orally administered to female SD rats; from tissue; host or cells: whole animal (female SD rats), endogenous channel
Description: Test compounds were dissolved in dimethylacetamide (wako), and 0.5% methylcellulose solution (wako) was added to make the solution or suspension containing 5% of dimethylacetamide. At a dose of 3 or 10 mg/kg/5 mL of test compounds were orally administered to female SD rats. After 1 hour, wet-dog shakes were induced by the intrapenitoneal injection of icilin (1 mg/kg) which was dissolved in polyethylene glycol 400 (wako). From 5 minutes after the administration of icilin, wet-dog shakes were counted for 5 minutes. For control example, vehicle (a mixture of dimethylacetamide (wako): 0.5% methylcellulose (wako)=5:95) was administrated similarly, and the number of wet-dog shakes was counted in the same manner. A percent inhibition of wet-dog shakes by test compound was calculated from the following formula: [1-(test compound wet-dog shake count/vehicle wet-dog shake count)]×100.

Sequence of TRPM8 (Q8R455 whole entry): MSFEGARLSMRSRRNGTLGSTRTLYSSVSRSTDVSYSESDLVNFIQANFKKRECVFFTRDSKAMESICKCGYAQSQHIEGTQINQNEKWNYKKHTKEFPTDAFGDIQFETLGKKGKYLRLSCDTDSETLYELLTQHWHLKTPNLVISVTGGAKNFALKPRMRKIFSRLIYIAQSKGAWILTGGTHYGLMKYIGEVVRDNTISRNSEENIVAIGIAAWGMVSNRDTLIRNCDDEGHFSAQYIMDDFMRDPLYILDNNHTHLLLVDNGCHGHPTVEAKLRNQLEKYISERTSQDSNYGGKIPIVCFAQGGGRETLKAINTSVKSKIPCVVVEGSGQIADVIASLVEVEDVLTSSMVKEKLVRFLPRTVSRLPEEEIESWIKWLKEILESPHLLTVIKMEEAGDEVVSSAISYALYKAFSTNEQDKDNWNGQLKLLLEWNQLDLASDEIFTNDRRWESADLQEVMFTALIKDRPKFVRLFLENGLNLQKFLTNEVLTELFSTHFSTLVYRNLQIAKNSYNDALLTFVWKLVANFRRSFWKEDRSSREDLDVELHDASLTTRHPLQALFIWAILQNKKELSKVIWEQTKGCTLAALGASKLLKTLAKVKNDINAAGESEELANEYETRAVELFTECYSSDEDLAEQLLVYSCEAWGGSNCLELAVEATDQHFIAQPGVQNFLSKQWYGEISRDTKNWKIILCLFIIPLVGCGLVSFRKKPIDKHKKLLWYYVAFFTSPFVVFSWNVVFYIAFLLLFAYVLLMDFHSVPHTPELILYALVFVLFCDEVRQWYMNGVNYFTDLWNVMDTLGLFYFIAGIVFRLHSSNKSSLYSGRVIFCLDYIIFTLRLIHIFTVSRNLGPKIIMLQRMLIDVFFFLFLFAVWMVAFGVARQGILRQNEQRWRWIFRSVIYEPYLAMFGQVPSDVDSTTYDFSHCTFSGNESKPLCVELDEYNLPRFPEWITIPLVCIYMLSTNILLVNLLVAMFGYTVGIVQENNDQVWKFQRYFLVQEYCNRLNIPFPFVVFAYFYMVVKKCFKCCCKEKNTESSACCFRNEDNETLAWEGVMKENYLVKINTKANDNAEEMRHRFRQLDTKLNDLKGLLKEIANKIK

| % inhibition of Wet-Dog Shake [%] | SMILES |
| --- | --- |
| 46 | Cc1ncsc1C(=O)N([C@@H]1CCc2ccc(Cl)cc21)[C@@H](C(N)=O)c1ccccc1 [Example 2-88LP, N-[(R)-carbamoylphenylmethyl]-N-[(R)-6-chloroindan-1-yl]-4-methylthiazole-5-carboxamide] |
| 100 | NC(=O)[C@@H](c1ccccc1)N(C(=O)c1cccnc1Cl)[C@@H]1CCc2c(F)cc(Cl)cc21 [Example 2-93LP, N-[(R)-carbamoylphenylmethyl]-2-chloro-N-[(R)-6-chloro-4-fluoroindan-1-yl]nicotinamide] |
| 47 | Cc1ccncc1C(=O)N([C@@H]1CCc2c(F)cc(Cl)cc21)[C@@H](C(N)=O)c1ccccc1 [Example 2-100LP, N-[(R)-carbamoylphenylmethyl]-N-[(R)-6-chloro-4-fluoroindan-1-yl]-4-methylnicotinamide] |
| 49 | Cc1ncsc1C(=O)N([C@@H]1CCc2c(F)cc(F)cc21)[C@@H](C(N)=O)c1ccccc1 [Example 2-132LP, N-[(R)-carbamoylphenylmethyl]-N-[(R)-4,6-difluoroindan-1-yl]-4-methylthiazole-5-carboxamide] |
| 49 | Cc1cnoc1C(=O)N([C@@H]1CCc2c(F)cc(Cl)cc21)[C@@H](C(N)=O)c1ccccc1 [Example 2-150LP, N-[(R)-carbamoylphenylmethyl]-N-[(R)-6-chloro-4-fluoroindan-1-yl]-4-methylisoxazole-5-carboxamide] |
| 64 | Cc1cnccc1C(=O)N([C@@H]1CCc2c(F)cc(Cl)cc21)[C@@H](C(N)=O)c1ccccc1 [Example 2-167LP, N-[(R)-carbamoylphenylmethyl]-N-[(R)-6-chloro-4-fluoroindan-1-yl]-3-methylisonicotinamide] |
| 43 | NC(=O)[C@@H](c1cccnc1)N(C(=O)c1cccc2c1OCO2)[C@@H]1CCc2c(F)cc(Cl)cc21 [Example 2-172LP, N-[(R)-carbamoylpyridin-3-ylmethyl]-N-[(R)-6-chloro-4-fluoroindan-1-yl]benzo[1,3]dioxole-4-carboxamide] |

Second part, the molecule before the results:

| SMILES | % inhibition of Wet-Dog Shake [%] |
| --- | --- |
| NC(=O)[C@@H](c1ccccc1)N(C(=O)c1ccccc1)[C@@H]1COc2c(F)cc(Cl)cc21 (racemic) [Example 2-252M, N-[(RS)-carbamoylphenylmethyl]-N-[(SR)-5-chloro-7-fluoro-2,3-dihydrobenzofuran-3-yl]benzamide] | 31 |
| COc1ncccc1C(=O)N([C@@H]1CCc2c(F)cc(F)cc21)[C@@H](C(N)=O)c1ccccc1 [Example 2-36LP, N-[(R)-carbamoylphenylmethyl]-N-[(R)-4,6-difluoroindan-1-yl]-2-methoxynicotinamide] | 74 |
| NC(=O)[C@@H](c1cccnc1)N(C(=O)c1ccccc1)[C@@H]1CCc2ccc(Cl)cc21 [Example 2-87LP, N-[(R)-carbamoylpyridin-3-ylmethyl]-N-[(R)-6-chloroindan-1-yl]benzamide] | 36 |
| NC(=O)[C@@H](c1cccnc1)N(C(=O)c1ccccc1Cl)[C@@H]1CCc2c(F)cc(Cl)cc21 [Example 2-97LP, N-[(R)-carbamoylpyridin-3-ylmethyl]-2-chloro-N-[(R)-6-chloro-4-fluoroindan-1-yl]benzamide] | 35 |
| CNc1ncccc1C(=O)N([C@@H]1CCc2c(F)cc(Cl)cc21)[C@@H](C(N)=O)c1ccccc1 [Example 2-107LP, N-[(R)-carbamoylphenylmethyl]-N-[(R)-6-chloro-4-fluoroindan-1-yl]-2-(methylamino)nicotinamide] | 68 |
| COc1ccccc1C(=O)N([C@@H]1CCc2c(F)cc(Cl)cc21)[C@@H](C(N)=O)c1cccnc1 [Example 2-118LP, N-[(R)-carbamoylpyridin-3-ylmethyl]-N-[(R)-6-chloro-4-fluoroindan-1-yl]-2-methoxybenzamide] | 62 |
| CSc1ncccc1C(=O)N([C@@H]1CCc2ccc(Cl)cc21)[C@@H](C(N)=O)c1ccccc1 [Example 2-125LP, N-[(R)-carbamoylphenylmethyl]-N-[(R)-6-chloroindan-1-yl]-2-(methylsulfanyl)nicotinamide] | 37 |
| CSc1ncccc1C(=O)N([C@@H]1CCc2c(F)cc(Cl)cc21)[C@@H](C(N)=O)c1ccccc1 [Example 2-128LP, N-[(R)-carbamoylphenylmethyl]-N-[(R)-6-chloro-4-fluoroindan-1-yl]-2-(methylsulfanyl)nicotinamide] | 65 |
| Cn1nccc1C(=O)N([C@@H]1CCc2c(F)cc(Cl)cc21)[C@@H](C(N)=O)c1ccccc1 [Example 2-133LP, N-[(R)-carbamoylphenylmethyl]-N-[(R)-6-chloro-4-fluoroindan-1-yl]-2-methyl-2H-pyrazole-3-carboxamide] | 55 |
| Cc1ncccc1C(=O)N([C@@H]1CCc2ccc(Cl)cc21)[C@@H](C(N)=O)c1ccccc1 [Example 2-137LP, N-[(R)-carbamoylphenylmethyl]-N-[(R)-6-chloroindan-1-yl]-2-methylnicotinamide] | 53 |
| Cc1cccnc1C(=O)N([C@@H]1CCc2c(F)cc(Cl)cc21)[C@@H](C(N)=O)c1ccccc1 [Example 2-152LP, N-[(R)-carbamoylphenylmethyl]-N-[(R)-6-chloro-4-fluoroindan-1-yl]-3-methylpyridine-2-carboxamide] | 44 |
| Cc1ncncc1C(=O)N([C@@H]1CCc2c(F)cc(Cl)cc21)[C@@H](C(N)=O)c1ccccc1 [Example 2-154LP, N-[(R)-carbamoylphenylmethyl]-N-[(R)-6-chloro-4-fluoroindan-1-yl]-4-methylpyrimidine-5-carboxamide] | 36 |
| Cc1ncccc1C(=O)N([C@@H]1CCc2c(F)cc(Cl)cc21)[C@@H](C(N)=O)c1cccc(F)c1 [Example 2-161LP, N-[(R)-carbamoyl-(3-fluorophenyl)methyl]-N-[(R)-6-chloro-4-fluoroindan-1-yl]-2-methylnicotinamide] | 42 |
| Cc1ncccc1C(=O)N([C@@H]1CCc2c(F)cc(Cl)cc21)[C@@H](C(N)=O)c1cccc(O)c1 [Example 2-168LP, N-[(R)-carbamoyl-(3-hydroxyphenyl)methyl]-N-[(R)-6-chloro-4-fluoroindan-1-yl]-2-methylnicotinamide] | 36 |
| NC(=O)[C@@H](c1ccccc1)N(C(=O)c1cccc2c1OCO2)[C@@H]1CCc2c(F)cc(Cl)cc21 [Example 2-173LP, N-[(R)-carbamoylphenylmethyl]-N-[(R)-6-chloro-4-fluoroindan-1-yl]benzo[1,3]dioxole-4-carboxamide] | 99 |

Same assay, conditions: dose 10 mg/kg orally, icilin 1 mg/kg i.p. after 1 hour, shakes counted for 5 minutes

| % inhibition of Wet-Dog Shake [%] | SMILES |
| --- | --- |
| 83 | NC(=O)[C@@H](c1ccccc1)N(C(=O)c1cccnc1)[C@@H]1CCc2ccc(OC(F)F)cc21 [Example 2-26LP, N-[(R)-carbamoylphenylmethyl]-N-[(R)-6-difluoromethoxyindan-1-yl]nicotinamide] |
| 95 | NC(=O)[C@@H](c1ccccc1)N(C(=O)c1cccnc1N)[C@@H]1CCc2ccc(OC(F)F)cc21 [Example 2-27LP, 2-amino-N-[(R)-carbamoylphenylmethyl]-N-[(R)-6-difluoromethoxyindan-1-yl]nicotinamide] |
| 98 | NC(=O)[C@@H](c1ccccc1)N(C(=O)c1cccnc1N)[C@@H]1CCc2ccc(Cl)cc21 [Example 2-33LP, 2-amino-N-[(R)-carbamoylphenylmethyl]-N-[(R)-6-chloroindan-1-yl]nicotinamide] |
| 98 | COc1cc(F)c2c(c1)[C@H](N(C(=O)c1cccnc1)[C@@H](C(N)=O)c1ccccc1)CC2 [Example 2-39LP, N-[(R)-carbamoylphenylmethyl]-N-[(R)-4-fluoro-6-methoxyindan-1-yl]nicotinamide] |
| 95 | Cc1cc(F)c2c(c1)[C@H](N(C(=O)c1cccnc1)[C@@H](C(N)=O)c1ccccc1)CC2 [Example 2-40LP, N-[(R)-carbamoylphenylmethyl]-N-[(R)-4-fluoro-6-methylindan-1-yl]nicotinamide] |
| 50 | NC(=O)[C@@H](c1ccccc1)N(C(=O)c1cccnc1)[C@@H]1CCc2c(F)cccc21 [Example 2-56LP, N-[(R)-carbamoylphenylmethyl]-N-[(R)-4-fluoroindan-1-yl]nicotinamide] |

The next lines start with the molecule.

| SMILES | % inhibition of Wet-Dog Shake [%] |
| --- | --- |
| COc1ccc2c(c1)[C@H](N(C(=O)c1cccnc1)[C@@H](C(N)=O)c1ccccc1)CC2 [Example 1-6, N-[(R)-Carbamoylphenylmethyl]-N-[(R)-6-methoxyindan-1-yl]nicotinamide] | 64 |
| NC(=O)[C@@H](c1ccccc1)N(C(=O)c1ccccc1)[C@@H]1CCc2ccc(OC(F)F)cc21 [Example 2-11LP, N-[(R)-carbamoylphenylmethyl]-N-[(R)-6-difluoromethoxyindan-1-yl]benzamide] | 85 |
| NC(=O)[C@@H](c1ccccc1)N(C(=O)c1cncs1)[C@@H]1CCc2ccc(Cl)cc21 [Example 2-71LP, N-[(R)-carbamoylphenylmethyl]-N-[(R)-6-chloroindan-1-yl]thiazole-5-carboxamide] | 83 |
| NC(=O)[C@@H](c1cccnc1)N(C(=O)c1ccccc1)[C@@H]1CCc2c(F)cc(F)cc21 [Example 2-76LP, N-[(R)-carbamoylpyridin-3-ylmethyl]-N-[(R)-4,6-difluoroindan-1-yl]benzamide] | 95 |
